In patent US20200271640A1, “METHOD FOR SCREENING COMPOUNDS THAT MODULATE THE ACTIVITY OF THE ELECTRON TRANSPORT CHAIN” (IMG Pharma Biotech, S.L., priority 2017, published 2020):
“Also recorded” adds a separate entry of the source.

Experiments:
[1] = system: mitochondrial supercomplexes; test: DAB oxidation activity assay of complexes and supercomplexes of the mitochondrial ETC in rat heart MMP; conditions: for effect on NADPH consumption rate / NADPH-inhibition period of DAB oxidation: in presence of NADPH; for inhibition of DAB oxidation by the substrate itself: substrate alone; for effect on NADH evoked inhibition (inhibition period) of DAB oxidation, supercomplex activity: in presence of NADH; for effect on succinate evoked decrease in DAB oxidation: in presence of succinate
Procedure: The crude homogenate was subjected to a 1000×g for 8 min, and the resultant supernatant was centrifuged again at 18,000×g for 15 min (4° C., Microfuge® 22R centrifuge, Beckman Coulter). The pellet was washed in 20 volumes of homogenized buffer using an Ultra-Turrax® (T10 basic, IKA) and re-centrifuged under the same conditions. The homogenate aliquots were stored at −80 ° C. until they were used. Protein concentration was measured by the Bradford method and adjusted to the required concentrations.
(§5) The assay buffer consisted of a phosphate buffer (pH 7,4), EDTA, Cl2Mg, BSA and 3,3′-diaminobenzidine (DAB) in the absence or in the presence of CI and CII substrates and the tested drugs. The reaction was started by adding 0.1 mg/ml membranes homogenates to the assay buffer (25° C.) or putting into contact cell membrane microarrays with assay buffer. DAB oxidation was measured every 5-10 min spectrophotometrically at 460 and 595 nm in a Multiskan microtiter plate reader (Thermo Scientific) for 960 min in the case of homogenates
Results were expressed as means of independent data points±S.E.M. In sake of clarity, biochemical data (Complex I and II activities, superoxide production and supercomplex activity) are presented as percentage of controls with or without the application of ETC inhibitors. Data were analyzed using paired Student's t-test, one-way (followed by Tukey's post hoc test) or two-way ANOVA (followed by Bonferroni's post hoc test), as appropriate.

[2] = system: mitochondrial supercomplexes; test: DAB oxidation supercomplex assay in MMP isolated from heart of cynomolgus monkey; assay type: biochemical; conditions: MMP from hearts of cynomolgus monkey
Procedure: as §5

[3] = system: succinate dehydrogenase (complex II); test: succinate dehydrogenase (complex II) activity assay, DCIP reduction; assay type: biochemical, rat; conditions: succinate (1 mM)
Procedure: (§1) CI and CII assays were performed based on a previous protocol with some modifications. The reaction mixture consisted of potassium phosphate buffer (0.8M K2HPO4, 0.2M KH2PO4, pH 7.4), 3 mg/ml BSA, 160 μM 2,6-dichloroindophenol (DCIP) (Sigma) together with the CI or CII substrates. The reaction was started by the addition of 0.1 mg/ml membranes homogenates (25° C.) in the absence or in the presence of decylubiquinone and ETC inhibitors. […] Control experiments were performed to exclude any interference or substrate interaction.

superoxide production = test: Superoxide production, NBT reduction in membrane homogenates; assay type: biochemical, rat; conditions: NADH (0.7 mM)
Procedure: The assay medium for measurement of superoxide production consisted of a 50 mM phosphate buffer (Na2HPO4, NaH2PO4, pH 7,4), 0.5 mg/ml nitro blue tetrazolium (NBT) as a redox dye and CI or CII substrates. The reaction was started by the addition of 0.1 mg/ml membranes homogenates for 360 min (25° C.) with or without decylubiquinone and ETC inhibitors.

[4] = system: NADH-ubiquinone oxidoreductase (complex I); test: NADH-ubiquinone oxidoreductase (complex I) activity assay, DCIP reduction; assay type: biochemical, rat; conditions: NADH (0.7 mM)
Procedure: as §1

electron transport chain = conditions: human tissue cell membrane microarrays
Procedure: (§2) Membrane homogenates isolated from human liver were suspended in buffer and they were printed (4 nL per spot, 2-5 replicates per sample) at increasing concentrations together with internal patrons onto glass slides using a non-contact microarrayer (Nano_plotter NP 2.1). The same process was used for developing cell membrane microarrays of different human tissues or rat tissues. Microarrays were stored at −20° C. until they were used. ETC activity assay using DAB and NBT as redox dyes
(§3) The assay buffer consisted of a 10 mM phosphate buffer (pH 7.4), 0.05% 3,3′-diaminobenzidine (DAB) or NBT (Nitro blue tetrazolium), 0.2 mM EGTA, 3 mg/ml BSA with or without mitochondrial ETC substrates and electron carriers, such as NADH and succinate. The reaction was started by adding 100 μl of the assay buffer to cell membrane microarrays using an incubation chamber. DAB oxidation or NBT reduction were measured every 20 min using a colorimetric high resolution scanner (Epson Perfection V750 Pro) for 24 hours.
(§4) Microphotographs were captured with the same light parameters and the collection of images was quantified with the MAPIX software (version 7.3.1). The optical densities obtained at different times were analyzed and the slope determined in the linear range was used to calculate the enzymatic rate.

[5] = system: reactive oxygen species (ROS) such as superoxide; conditions: human tissue cell membrane microarrays
Procedure: as §2, §3, §4

Molecule: NC(=O)c1ccc[n+]([C@@H]2O[C@H](COP(=O)([O-])OP(=O)(O)OC[C@H]3O[C@@H](n4cnc5c(N)ncnc54)[C@H](O)[C@@H]3O)[C@@H](O)[C@H]2O)c1 [NAD]
- effect on NADPH consumption rate / NADPH-inhibition period of DAB oxidation ([1]; rat heart MMP): reduces it

Molecule: NC(=O)C1=CN([C@@H]2O[C@H](COP(=O)(O)OP(=O)(O)OC[C@H]3O[C@@H](n4cnc5c(N)ncnc54)[C@H](OP(=O)(O)O)[C@@H]3O)[C@@H](O)[C@H]2O)C=CC1 [NADPH]
- inhibition of DAB oxidation by the substrate itself ([1]; rat heart MMP): inhibits DAB oxidation

Molecule: N#CC(C#N)=NNc1cccc(Cl)c1 [CCCP]
- effect on NADH evoked inhibition (inhibition period) of DAB oxidation, supercomplex activity ([1]; rat heart MMP): induces changes in both

Molecule: CCCCCCCCCCC1=C(C)C(=O)C(OC)=C(OC)C1=O [dUQ, decylubiquinone]
- effect on NADH-dependent inhibition period of DAB oxidation ([2]; NADH (0.7 mM)): significantly reduces the NADH-dependent inhibition period of DAB oxidation
- partial blockage of the rotenone effect by dUQ ([2]; NADH with rotenone): not detected in monkey
- effect of dUQ on the inhibitor's block of DCIP reduction, succinate ([3]; antimycin A, dUQ (50 μM)): blocks the effect of antimycin A
- effect on inhibitor mediated enhancement of NADH inhibition of DAB oxidation ([1]; dUQ at 10 μM, with NADH and rotenone, antimycin A or myxothiazol): reducing the inhibitor mediated effects; also recorded: partial blockage of the rotenone effect
- effect on inhibitor mediated enhancement of NADH inhibition of DAB oxidation ([1]; dUQ at 50 μM, with NADH and rotenone or antimycin A): potentiating those evoked by rotenone and antimycin A
- effect on DAB oxidation blockage at higher concentrations of succinate ([1]; rat heart MMP, higher concentrations of succinate (5 mM in FIG. 1e)): potentiates the DAB oxidation blockage
- effect on NADH evoked inhibition (inhibition period) of DAB oxidation, supercomplex activity ([1]; rat heart MMP): slight reduction of the NADH evoked inhibition of DAB oxidation
- effect on NADPH consumption rate / NADPH-inhibition period of DAB oxidation ([1]; rat heart MMP): NADPH-inhibition period is enhanced
- superoxide production using NADH (superoxide production): increased in the presence of dUQ
- effect of dUQ on the inhibitor's block of DCIP reduction, NADH ([4]; myxothiazol, dUQ (50 μM)): does not produce the same effect with myxothiazol

Molecule: C=C(C)[C@H]1Cc2c(ccc3c2O[C@@H]2COc4cc(OC)c(OC)cc4[C@@H]2C3=O)O1 [rotenone]
- effect on NADH evoked inhibition (inhibition period) of DAB oxidation, supercomplex activity ([1]; rat heart MMP): enhances the substrate evoked inhibition of DAB oxidation
- superoxide production using NADH (superoxide production): induces superoxide formation

Molecule: [Zn+2] [Zinc]
- effect on NADH evoked inhibition (inhibition period) of DAB oxidation, supercomplex activity ([1]; rat heart MMP): enhances the inhibition period evoked by NADH

Molecule: sodium deoxycholate
- effect on NADH evoked inhibition (inhibition period) of DAB oxidation, supercomplex activity ([1]; rat heart MMP): effects also observed

Molecule: CO/C(=C/C(N)=O)[C@H](C)[C@H](/C=C/c1csc(-c2csc([C@@H](C)/C=C/C=C/C(C)C)n2)n1)OC [myxothiazol]
- DCIP reduction with succinate as substrate [3]: not myxothiazol did it
- effect on succinate evoked decrease in DAB oxidation ([1]; rat heart MMP): promotes the blockage of the succinate-derived electron input
- DCIP reduction in the presence of NADH [4]: efficiently blocked DCIP reduction

Molecule: O=[N+]([O-])c1ccc(O)c([N+](=O)[O-])c1 [DNP]
- effect on NADH evoked inhibition (inhibition period) of DAB oxidation, supercomplex activity ([1]; rat heart MMP): does not alter DAB oxidation

Molecule: antimycin A
- DCIP reduction with succinate as substrate [3]: did it
- effect on NADH evoked inhibition (inhibition period) of DAB oxidation, supercomplex activity ([1]; rat heart MMP): enhancement of the NADH-inhibition period
- effect on succinate evoked decrease in DAB oxidation ([1]; rat heart MMP): blocks the electron flux generated by CII to cyt c
- superoxide production using NADH (superoxide production): biphasic effect in which a maximum was observed in low micromolar range
- DCIP reduction in the presence of NADH [4]: not antimycin A efficiently blocked DCIP reduction

Molecule: NC(=O)C1=CN([C@@H]2O[C@H](COP(=O)(O)OP(=O)(O)OC[C@H]3O[C@@H](n4cnc5c(N)ncnc54)[C@H](O)[C@@H]3O)[C@@H](O)[C@H]2O)C=CC1 [NADH]
- inhibition of DAB oxidation by the substrate itself ([1]; rat heart MMP): full blockage

Molecule: cytochrome c [cyt c]
- effect on NADH evoked inhibition (inhibition period) of DAB oxidation, supercomplex activity ([1]; rat heart MMP): cannot bypass the full inhibition caused by NADH on DAB oxidation; also recorded: decreases the time period in which a specific NADH concentration induces the DAB oxidation blockage
- effect on NADPH consumption rate / NADPH-inhibition period of DAB oxidation ([1]; rat heart MMP): increases the NADPH consumption rate
- effect on succinate evoked decrease in DAB oxidation ([1]; rat heart MMP): reduces the effect promoted by CI and CII substrates on DAB oxidation
- NADH consumption rate in the presence of ETC inhibitors ([1]; soluble cyt c, with NADH and ETC inhibitors): accelerates the NADH consumption rate

Molecule: O=C(O)CCC(=O)O [succinate]
- inhibition of DAB oxidation by the substrate itself ([1]; rat heart MMP): partial inhibition
- ETC activity quantified using DAB as redox dye (electron transport chain): tissue specifically modulated
- formation of reactive oxygen species (formazan production) [5]: produces the formation of reactive oxygen species (ROS) such as superoxide

Molecule: CCCCCCCCCCCCOS(=O)(=O)[O-].[Na+] [SDS]
- effect on NADH evoked inhibition (inhibition period) of DAB oxidation, supercomplex activity ([1]; rat heart MMP): effects also observed

Molecule: C[C@@H]1CC[C@@]2(OC1)O[C@H]1[C@@H](O)[C@H]3[C@@H]4CC[C@H]5C[C@@H](O[C@@H]6O[C@H](CO)[C@H](O[C@@H]7O[C@H](CO)[C@@H](O)[C@H](O[C@@H]8OC[C@@H](O)[C@H](O)[C@H]8O)[C@H]7O[C@@H]7O[C@H](CO)[C@H](O)[C@H](O[C@@H]8O[C@H](CO)[C@@H](O)[C@H](O)[C@H]8O)[C@H]7O)[C@H](O)[C@H]6O)[C@H](O)C[C@]5(C)[C@H]4CC[C@]3(C)[C@H]1[C@@H]2C [digitonin]
- effect on NADH evoked inhibition (inhibition period) of DAB oxidation, supercomplex activity ([1]; rat heart MMP): enhancement on the NADH inhibition period
